This experiment deals with MLV. Put plainly: VRV study, Arginine treatment of PA eluate. The procedure: Based on the stability and activity studies reported in Example 1, the most promising viral inactivation methods were further tested for their ability to inactivate viruses. The effectiveness of the viral inactivation was evaluated by doing a spiking study at Bioreliance. Test samples were taken before and after each treatment and analyzed for viral titre. First, VRV study on Arginine treatment was carried out.
Only one virus, MLV, which is a typical model virus used for biological products derived from CHO cell lines such as monoclonal antibody, was used for this study. A total of 7 runs were performed. PA eluate from development runs was used as starting material. Different stock buffers of Arginine at the different pH (pH 4.0, pH 4.75, pH 4.79 and pH 5.5) were used to reach the target pH and concentration. The samples were neutralized using 250 mM Histidine pH 12.0 buffer around pH 6.0 to stop the reaction.
Log reduction values was calculated with respect to the neutralized load sample, a 5 plate large volume plating as well as a standard titration was performed on the t=60 min sample. The neutralized load hold sample was held at 16.0° C. to 20.0° C. for 60 minutes (runs 2, 4 and 6) or 120 minutes (runs 1, 3, 5 and 7).

On to `N=C(N)NCCC[C@H](N)C(=O)O` [Arginine], for which the virus clearance result (Arginine treatment at pH 4.0) is “effective (“effective”, when RF is greater than 4 log10)”. The log10 reduction factor entry is given as “no reduction” (Run 5, Arginine concentration 0.38, pH 4.79, 120 min) and “no reduction” (Run 7, Arginine concentration 0.8, pH 5.5, 120 min).

The values above are taken from patent US12351602B2, “Methods of inactivating viral contaminants” (Ichnos Sciences SA, priority 2017, dated 2025).
